Test results taken from patent US20160106711A1, “3-3-Di-Substituted-Oxindoles as Inhibitors of Translation Initiation” (President and Fellows of Harvard College, priority 2012, published 2016).

Legend:
[1] = tested on: KLN; test: Cell growth assay (sulforhodamine B), KLN cells; format: cell-based, mouse; conditions: 5 days, SRB
Procedure: […] Plates were then incubated with 0.4% SRB in 1% acetic acid for 1 h, washed with 1% acetic acid to remove the unbound dye, and air-dried. The bound dye was solubilized by addition of 10 mM Tris (pH 10), and the absorbance was determined in a Titertek Multiscan plate reader at 490 nm. The data calculations were carried out as described (the values for mean±SD of data from replicate wells are calculated): data are expressed in terms of % T/C [(OD of treated cells/OD of control cells)×100], as a measure of cell viability and survival in the presence of test materials. Calculations are also made for the concentration of test agents giving a T/C value of 50%, or 50% growth inhibition (IC50). With the SRB assay, a measure is made of the cell population density at time 0 (the time at which drugs are added) from two extra reference plates of inoculated cells fixed with TCA just prior to drug addition to the test plates. Thus, we have three measurements: control optical density (C), test optical density (T), and optical density at time zero (T0). The calculation is 100×[(T−T0)/(C−T0)]. If T is less than T0, cell killing has occurred and can be calculated from 100×[(T−T0)/T0]. Thus, for each drug-cell line combination, a dose-response curve is generated and three levels of effect are calculated.

[2] = tested on: CRL-2813; test: Cell growth assay (sulforhodamine B), CRL-2813 cells; format: cell-based, human; conditions: 5 days, SRB
Procedure: (§1) Adherent mouse (KLN) and human solid tumor cells (CRL-2351, and CRL-2813) were plated in 96-well plates and maintained for 5 days in the presence of 0.54 to 6 μM of individual compound, and cell proliferation was measured by the sulforhodamine B (SRB) assay as described in ref. 11: briefly, cells were fixed in 10% cold trichloroacetic acid at 4° C. for 1 h, extensively washed with double-distilled H2O and air-dried. Plates were then incubated with 0.4% SRB in 1% acetic acid for 1 h, washed with 1% acetic acid to remove the unbound dye, and air-dried. The bound dye was solubilized by addition of 10 mM Tris (pH 10), and the absorbance was determined in a Titertek Multiscan plate reader at 490 nm. The data calculations were carried out as described (the values for mean±SD of data from replicate wells are calculated): data are expressed in terms of % T/C [(OD of treated cells/OD of control cells)×100], as a measure of cell viability and survival in the presence of test materials. Calculations are also made for the concentration of test agents giving a T/C value of 50%, or 50% growth inhibition (IC50). With the SRB assay, a measure is made of the cell population density at time 0 (the time at which drugs are added) from two extra reference plates of inoculated cells fixed with TCA just prior to drug addition to the test plates. Thus, we have three measurements: control optical density (C), test optical density (T), and optical density at time zero (T0). The calculation is 100×[(T−T0)/(C−T0)]. If T is less than T0, cell killing has occurred and can be calculated from 100×[(T−T0)/T0]. Thus, for each drug-cell line combination, a dose-response curve is generated and three levels of effect are calculated.

[3] = tested on: CRL-2351; test: Cell growth assay (sulforhodamine B), CRL-2351 cells; format: cell-based, human; conditions: 5 days, SRB
Procedure: as §1

[4] = tested on: eIF2•GTP•Met-tRNAi ternary complex; test: Ternary complex assay (ATF-4 assay), dual luciferase firefly/renilla ratio; format: cell-based, mouse; conditions: for maximal fold induction at 40 µM: read-out: ATF-4 Xmax @ 40 μM
Text: For assay development, a bi-directional plasmid was designed in which a common promoter/enhancer complex drives the transcription of firefly luciferase (F-luc) ORF fused to the 5′ untranslated region (UTR) of ATF-4, and of the renilla luciferase (R-luc) ORF fused to a 90-nucleotide 5′ UTR derived from the plasmid (FIG. 6A). Because the tetracycline-regulated transactivator ((tTA), required for driving transcription from this vector) is not normally expressed in the mammalian cells, stable KLN cancer cells were constructed that expressed tTA (KLN-tTA).
The KLN-tTA colonies that drove expression of reporter genes from pBISA-DL plasmid were selected by transient transfection and dual luciferase assay. One of these KLN-tTA cell lines was transfected with the pBISA-DL^(ATF-4) expression vector, stable colonies were selected by dual luciferase assay and expanded.
Plasmids and Ternary Complex Assay
(ATF-4 Assay). Briefly, bi-directional mammalian expression vector pBI (Clontech, CA) was modified to expand the multiple cloning sites (MCSs) and designated thereafter as pBISA. This vector contains seven copies of the tetracycline-regulated transactivator response element (TRE), which together act as core promoter/enhancer. The TRE is flanked on both sides by minimal human cytomegalovirus (CMV) minimal promoters allowing bi-directional transcription and two MCSs. Firefly and renilla luciferases were subcloned into MCS-I and MCS-II, respectively. This plasmid, designated pBISA-DL, transcribes two mRNAs that contain the 90 nucleotide plasmid derived 5′UTR (same sequence in both mRNAs), and the ORF encoding either firefly or renilla luciferase followed by a polyadenylation sequence as described in Ziegeler, G.; Ming, J.; Koseki, J. C.; Sevinc, S.; Chen, T.; Ergun, S.; Qin, X.; Aktas, B. H. J. Biol. Chem. 2010, 285, 15408 hereby incorporated by reference. This plasmid was further modified by inserting the 5′UTR of ATF-4 into MCS-I in front of the firefly luciferase mRNA. Transcription from this direction generates an mRNA that contains the firefly luciferase ORF preceded by a 5′UTR composed of 90 nucleotides derived from the plasmid and 267 nucleotides derived from the 5′UTR of ATF-4 mRNA. Transcription from the other direction generates an mRNA that contains the renilla luciferase ORF proceeded only by the 90-nucleotide plasmid-derived sequence in the 5′UTR. This expression plasmid is called pBISA-DL(ATF-4). In the dual luciferase assay, cells expressing firefly and renilla luciferases were lysed and the extracts assayed with a Dual-Glo Luciferase assay kit, per manufacturer's instruction (Promega Inc., Madison, Wis.). The data calculations were carried out as the ratio of firefly to renilla luciferase signal as described in Chen, T.; Ozel, D.; Qiao, Y.; Harbinski, F.; Chen, L.; Denoyelle, S.; He, X.; Zvereva, N.; Supko, J. G.; Chorev, M.; Halperin, J. A.; Aktas, B. H. Nat. Chem. Biol. 2011, 7, 610 hereby incorporated by reference.

[5] = Mus musculus, 80 uM, read-out: ATF-4 Xmax
[6] = Mus musculus, read-out: ATF-4 Xmax

SMILES: CC(C)Oc1ccc(O)c(C2(c3ccccc3)C(=O)Nc3ccccc32)c1 (stereo not shown) [HY032, 3-(2-Hydroxy-5-Isopropoxyphenyl)-3-Phenylindolin-2-One]
- IC50 ([1]; Mus musculus, 120 h): 16.1 ± 2.2 µM
- IC50 ([2]; Homo sapiens, CRL2813, 120 h): 10.5 ± 1.9 µM
- IC50 ([3]; Homo sapiens, 120 h): 4.8 ± 1.6 µM
- maximal fold induction at 40 µM ([4]; Mus musculus): 4.65 ± 0.58

SMILES: CC(C)(C)c1ccc(O)c(C2(c3ccc(CN4CCOCC4)cc3)C(=O)Nc3ccccc32)c1 (stereo not shown) [HY016, 3-(5-tert-butyl-2-hydroxyphenyl)-3-(4-(Morpholinomethyl)phenyl)Indolin-2-One]
- IC50 ([1]; Mus musculus, 120 h): 17.3 ± 2.4 µM
- IC50 ([2]; Homo sapiens, CRL2813, 120 h): 7.8 ± 0.66 µM
- IC50 ([3]; Homo sapiens, 120 h): 7.3 ± 3.6 µM
- maximal fold induction at 80 µM [4, 5]: 8.5 ± 5.3

SMILES: COC(=O)c1cccc2c1NC(=O)C2(c1ccc(OC)cc1)c1cc(C(C)(C)C)ccc1O (stereo not shown) [Sd202]
- IC50 ([1]; Mus musculus, 120 h): > 20 µM
- IC50 ([2]; Homo sapiens, CRL2813, 120 h): 12.2 ± 0.5 µM
- IC50 ([3]; Homo sapiens, 120 h): 3.4 ± 0.6 µM
- maximal fold induction at 40 µM ([4]; Mus musculus): 4.12 ± 0.42

SMILES: CCOC(=O)COc1ccccc1C1(c2cc(C(C)(C)C)ccc2OCC(=O)OCC)C(=O)Nc2ccccc21 (stereo not shown) [HY067]
- IC50 [1]: 19.8 ± 1.3 µM
- IC50 [2]: 0.24 µM
- IC50 [3]: 2.1 ± 1.1 µM
- ATF-4 Xmax ([4]; 80 uM): 1.19 ± 0.19/80 uM

SMILES: CN1CCN(CCOc2ccc(C(C)(C)C)cc2C2(c3cc(C(C)(C)C)ccc3OCCN3CCN(C)CC3)C(=O)Nc3ccccc32)CC1 [HY413]
- IC50 ([1]; Mus musculus, 120 h): 0.85 ± 0.02 µM
- IC50 ([2]; Homo sapiens, CRL2813, 120 h): 0.74 ± 0.01 µM
- IC50 ([3]; Homo sapiens, 120 h): 0.2 ± 0.08 µM
- maximal fold induction at 10 µM ([4]; Mus musculus, 10 uM, read-out: ATF-4 Xmax): 9.7 ± 3.8

SMILES: Cc1cc(C2(c3cc(C(C)(C)C)ccc3O)C(=O)Nc3ccccc32)ccc1Cl (stereo not shown) [HY017, 3-(5-tert-Butyl-2-Hydroxyphenyl)-3-(4-Chloro-3-Methylphenyl)Indolin-2-One]
- IC50 ([1]; Mus musculus, 120 h): 4.3 ± 1 µM
- IC50 ([2]; Homo sapiens, CRL2813, 120 h): 2.9 ± 0.1 µM
- IC50 ([3]; Homo sapiens, 120 h): 2.9 ± 0.1 µM
- maximal fold induction at 40 µM ([4]; Mus musculus): 0.65 ± 0.7

SMILES: CC(C)(C)c1ccc(C2(c3cc(C(C)(C)C)ccc3O)C(=O)Nc3ccccc32)c(OCCO)c1 (stereo not shown) [HY069]
- IC50 ([1]; Mus musculus, 120 h): > 20 µM
- IC50 ([2]; Homo sapiens, CRL2813, 120 h): 2.9 ± 0.3 µM
- IC50 ([3]; Homo sapiens, 120 h): 8.8 ± 0.9 µM
- maximal fold induction at 40 µM ([4]; Mus musculus): 10.7 ± 1

SMILES: COc1ccc(C2(c3cc(C(C)(C)C)ccc3OCCN3CCOCC3)C(=O)Nc3ccc(OC(F)(F)F)cc32)cc1 (stereo not shown) [Sd225]
- IC50 ([1]; Mus musculus, 120 h): 9.3 ± 2.7 µM
- IC50 ([2]; Homo sapiens, CRL2813, 120 h): 1.9 ± 0.7 µM
- IC50 ([3]; Homo sapiens, 120 h): 2.9 ± 0.27 µM
- maximal fold induction at 40 µM ([4]; Mus musculus): 5.11 ± 0.48

SMILES: CCN(CC)CCOc1ccc(C(C)(C)C)cc1C1(c2cc(C(C)(C)C)ccc2OCCN(CC)CC)C(=O)N(CCN(CC)CC)c2ccccc21 [HY296]
- IC50 ([1]; Mus musculus, 120 h): 1.6 ± 0.5 µM
- IC50 ([2]; Homo sapiens, CRL2813, 120 h): 0.72 ± 0.23 µM
- IC50 ([3]; Homo sapiens, 120 h): 0.59 ± 0.26 µM
- maximal fold induction at 2.5 µM ([4]; Mus musculus, 2.5 uM, read-out: ATF-4 Xmax): 14.3 ± 0.78

SMILES: CC(C)(C)c1ccc(O)c(C2(c3cc(C(C)(C)C)ccc3OCCN3CCCCC3)C(=O)Nc3ccccc32)c1 (stereo not shown) [HY072]
- IC50 ([1]; Mus musculus, 120 h): 2.9 ± 0.4 µM
- IC50 ([2]; Homo sapiens, CRL2813, 120 h): 3.35 ± 0.5 µM
- IC50 ([3]; Homo sapiens, 120 h): 0.7 ± 0.1 µM
- maximal fold induction at 20 µM [4, 6]: 4.15 ± 0.5

SMILES: CC(C)(C)c1ccc(OCCN2CCCCC2)c(C2(c3cc(C(C)(C)C)ccc3OCCN3CCCCC3)C(=O)Nc3ccccc32)c1 [HY172]
- IC50 ([1]; Mus musculus, 120 h): 1.3 ± 0.3 µM
- IC50 ([2]; Homo sapiens, CRL2813, 120 h): 11.6 ± 1.4 µM
- IC50 ([3]; Homo sapiens, 120 h): 2.14 ± 1.28 µM
- maximal fold induction at 80 µM [4, 5]: 5.91 ± 0.52

SMILES: COC(=O)c1cccc2c1NC(=O)C2(c1ccc(OC)cc1)c1cc(C(C)(C)C)ccc1OCCN1CCOCC1 (stereo not shown) [Sd203, Methyl 3-{5-tert-butyl-2-[2-(morpholin-4-yl)ethoxy]phenyl}-3-(4-methoxyphenyl)-2-oxoindole-7-carboxylate]
- IC50 ([1]; Mus musculus, 120 h): 17 ± 3.5 µM
- IC50 ([2]; Homo sapiens, CRL2813, 120 h): 14.6 ± 2.8 µM
- IC50 ([3]; Homo sapiens, 120 h): 16.3 ± 1.6 µM
- maximal fold induction at 5 µM ([4]; Mus musculus, cell prints 5 (uM), read-out: ATF-4 Xmax): 1.51 ± 0.3

SMILES: CN(C)c1ccc(C2(c3cc(C(C)(C)C)ccc3O)C(=O)Nc3ccccc32)cc1 (stereo not shown) [Sd153]
- IC50 ([1]; Mus musculus, 120 h): 10.9 ± 1.3 µM
- IC50 ([2]; Homo sapiens, CRL2813, 120 h): 11 µM
- IC50 ([3]; Homo sapiens, 120 h): 2.3 ± 0.3 µM
- maximal fold induction at 40 µM ([4]; Mus musculus): 3.55

SMILES: CCCCc1ccc(O)c(C2(c3cc(CCCC)ccc3O)C(=O)Nc3ccccc32)c1 [HY048, 3,3-Bis(5-Butyl-2-Hydroxyphenyl)Indolin-2-One]
- IC50 ([1]; Mus musculus, 120 h): 14.3 ± 1.6 µM
- IC50 ([2]; Homo sapiens, CRL2813, 120 h): 3 µM
- IC50 ([3]; Homo sapiens, 120 h): 1.9 ± 0.5 µM
- maximal fold induction at 20 µM [4, 6]: 5 ± 1.5

SMILES: CN(C)CCOc1ccc(C(C)(C)C)cc1C1(c2cc(C(C)(C)C)ccc2OCCN(C)C)C(=O)Nc2ccccc21 [HY177]
- IC50 ([1]; Mus musculus, 120 h): > 20 µM
- IC50 ([2]; Homo sapiens, CRL2813, 120 h): 12.5 ± 1 µM
- IC50 ([3]; Homo sapiens, 120 h): 11.5 ± 1.5 µM
- maximal fold induction at 40 µM ([4]; Mus musculus): 1.34 ± 0.38

SMILES: CN(C)c1ccc(C2(c3cc(C(C)(C)C)ccc3OCCN3CCOCC3)C(=O)Nc3c2ccc(F)c3F)cc1 (stereo not shown) [Sd163]
- IC50 ([1]; Mus musculus, 120 h): 15.7 ± 1.9 µM
- IC50 ([2]; Homo sapiens, CRL2813, 120 h): 11 ± 1.3 µM
- IC50 ([3]; Homo sapiens, 120 h): 4 ± 1 µM
- maximal fold induction at 80 µM [4, 5]: 5.1 ± 0.1
